Our source for the GI50 and TGI values is PubChem BioAssay (NCI).

Test systems include NCI-H226 lung; OVCAR-5 ovarian; CCRF-CEM leukemia; SN12C renal; A549 NSCLC; COLO 205 colon; UACC-62 melanoma; SK-OV-3 ovarian; MDA-MB-435; SNB-19 CNS.
Assay in all cases: growth of human tumour cells (NCI), 48 h

Where “and” joins values, the source holds several entries; their conditions need not be identical. Equal values may be shown once.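 Five compound concentrations were applied to cells in 96-well plates for 48 hours; endpoints were derived by simple linear interpolation of the resulting dose-response curve. At the GI50, growth is halved. TGI: total growth inhibition.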

On to `Cc1cc2c(cc1Cl)SC(=Nc1ccc(Cl)cc1)N(S(=O)(=O)c1ccc(Br)s1)S2(=O)=O`, for which the GI50 is 14 µM in the assay with NCI-H226 lung; 15.7 µM with OVCAR-5 ovarian; 10.1 µM with CCRF-CEM leukemia; 14.1 µM in the assay with SN12C renal; 18 µM in the assay with A549 NSCLC; 17.8 µM in the assay with COLO 205 colon. In addition, the GI50 is 12 µM in the assay on UACC-62 melanoma, 34.5 µM with SK-OV-3 ovarian, 14.1 µM with MDA-MB-435 and 13.7 µM in the assay with SNB-19 CNS. Also, the TGI with NCI-H226 lung is 47.1 µM; with OVCAR-5 ovarian, 34.1 µM; with CCRF-CEM leukemia, more than 100 µM; in the assay with SN12C renal it was 32.6 µM; in the assay on A549 NSCLC, 48.7 µM; in the assay on COLO 205 colon, more than 100 µM. For the same compound, the TGI in the assay on UACC-62 melanoma came out at 25.3 µM; in the assay on SK-OV-3 ovarian, 97.1 µM; in the assay with MDA-MB-435, 31.3 µM; with SNB-19 CNS, 46.4 µM.
For the compound `CC[C@@H]1C(=O)N(C)c2cnc(Nc3ccc(C(=O)NC4CCC(N5CCN(CC6CC6)CC5)CC4)cc3OC)nc2N1C(C)C` (some centres not stated), the TGI was more than 10 µM in the assay on NCI-H226 lung; > 10 µM and 16.9 µM in the assay on OVCAR-5 ovarian; > 7.37 µM and 4.22 µM in the assay on CCRF-CEM leukemia; > 10 µM and 15.1 µM with SN12C renal; 0.276 µM and 0.268 µM in the assay on COLO 205 colon; > 8.3 µM and 13.3 µM in the assay with UACC-62 melanoma. The TGI with SK-OV-3 ovarian was 1.37 µM and 0.904 µM; in the assay on MDA-MB-435, 0.0134 µM; in the assay on SNB-19 CNS it was > 10 µM and 18 µM. The GI50 was 0.0146 µM and 0.0502 µM in the assay with OVCAR-5 ovarian; 0.00974 µM and < 0.01 µM in the assay with CCRF-CEM leukemia; 0.0917 µM and 0.173 µM in the assay on SN12C renal; 0.0308 µM and 0.0348 µM in the assay with A549 NSCLC; 0.00438 µM and < 0.01 µM in the assay with COLO 205 colon; 0.0356 µM and 0.0388 µM in the assay on UACC-62 melanoma. The GI50 is 0.046 µM and 0.0354 µM with SK-OV-3 ovarian; less than 0.01 µM with MDA-MB-435; 0.0356 µM and 0.0566 µM in the assay with SNB-19 CNS.
Take `CN(C)CCN1C(=O)c2cccc3cc(N)cc(c23)C1=O`: the GI50 is 1.51 µM in the assay on NCI-H226 lung; 3.98 µM in the assay on OVCAR-5 ovarian; 3.45 µM with CCRF-CEM leukemia; 2.83 µM in the assay on SN12C renal; 0.912 µM and 1.51 µM with A549 NSCLC; 2.23 µM in the assay with COLO 205 colon. Further, the results for the GI50 with UACC-62 melanoma, in the assay on MDA-MB-435 and with SNB-19 CNS were 2.89 µM, 3.86 µM and 4.7 µM, respectively. Moreover, the TGI was 5.34 µM and 8.51 µM in the assay with NCI-H226 lung; 48.7 µM and 13.8 µM in the assay with OVCAR-5 ovarian; > 50.7 µM and 20 µM in the assay on CCRF-CEM leukemia; > 56.9 µM and 16.3 µM with SN12C renal; > 21.5 µM and 9.09 µM in the assay with A549 NSCLC; 14.7 µM and 7.19 µM in the assay on COLO 205 colon. Also, the TGI with UACC-62 melanoma was 11.7 µM and 8.02 µM; in the assay on SK-OV-3 ovarian, 38.4 µM and 17.4 µM; with MDA-MB-435, 15.7 µM and 9.98 µM; with SNB-19 CNS it was > 88.9 µM and 18.8 µM.
`COc1cccc(C2CC(C)(O)Oc3cc4c(cc32)OCO4)c1` (configuration not stated): the TGI with NCI-H226 lung is 53 µM; in the assay with OVCAR-5 ovarian, more than 100 µM; with CCRF-CEM leukemia it was more than 100 µM; in the assay on SN12C renal it was more than 100 µM; in the assay with A549 NSCLC, more than 100 µM; in the assay on COLO 205 colon, 43.1 µM. Moreover, the TGI in the assay on UACC-62 melanoma was more than 100 µM; in the assay on SK-OV-3 ovarian it was 67.2 µM; with MDA-MB-435 it was 15.2 µM; with SNB-19 CNS, more than 100 µM.
Take `Oc1ccc(CCNc2nc3ccccc3c3[nH]c4ccccc4c23)cc1O`: the GI50 was 11 µM in the assay with NCI-H226 lung; 14 µM in the assay on OVCAR-5 ovarian; 1.59 µM in the assay on CCRF-CEM leukemia; 1.94 µM in the assay on SN12C renal; 2.26 µM in the assay on A549 NSCLC; 2.27 µM in the assay on COLO 205 colon. Moreover, the GI50 in the assay with UACC-62 melanoma was 3.86 µM; with SK-OV-3 ovarian, 10.7 µM; with MDA-MB-435, 1.7 µM; with SNB-19 CNS, 3.06 µM. The TGI with NCI-H226 lung came out at 24.3 µM; with OVCAR-5 ovarian, 26.9 µM; in the assay on CCRF-CEM leukemia it was 4.35 µM; with SN12C renal, 7.29 µM; with A549 NSCLC, 5.95 µM; in the assay on COLO 205 colon it was 6.8 µM. For the same compound, the TGI in the assay on UACC-62 melanoma was determined as 13.4 µM; in the assay with SK-OV-3 ovarian it was 22.6 µM; in the assay with MDA-MB-435 it was 3.26 µM; in the assay with SNB-19 CNS it was 11.2 µM.
On to `CCOc1ccc2nc3cc(N)ccc3c(N)c2c1`, for which the GI50 was 6.49 µM and 2.55 µM in the assay on NCI-H226 lung; 16.2 µM and 12.8 µM in the assay with OVCAR-5 ovarian; 3.43 µM and 4.22 µM in the assay with CCRF-CEM leukemia; 0.661 µM and 0.298 µM in the assay on SN12C renal; 9.61 µM and 10.9 µM with A549 NSCLC; 3 µM and 1.25 µM in the assay with COLO 205 colon. The GI50 in the assay with UACC-62 melanoma was 4.7 µM and 2.56 µM; in the assay with SK-OV-3 ovarian it was 2.67 µM and 3.65 µM; in the assay with MDA-MB-435, 10.6 µM and 7.74 µM; in the assay on SNB-19 CNS, 0.339 µM and 0.574 µM. The TGI with NCI-H226 lung was 24.2 µM and 13.4 µM; in the assay on OVCAR-5 ovarian, 39 µM and 25.6 µM; in the assay on CCRF-CEM leukemia it was 17.1 µM and 20.9 µM; with SN12C renal, 6.45 µM and 2.1 µM; in the assay with A549 NSCLC it was 28.6 µM and 26.2 µM; in the assay with COLO 205 colon, 13.4 µM and 4.69 µM. Moreover, the TGI in the assay with UACC-62 melanoma was 18.5 µM and 12 µM; with SK-OV-3 ovarian, 14.2 µM and 15.6 µM; with MDA-MB-435, 24.3 µM and 22.4 µM; with SNB-19 CNS, 2.04 µM and 5 µM.
Take `CN1CCN(CCCOC(=O)c2c3c(n4ccccc24)C(=O)c2ncccc2C3=O)CC1`: the GI50 with NCI-H226 lung is 0.0178 µM; in the assay with OVCAR-5 ovarian, 0.357 µM; in the assay with CCRF-CEM leukemia it was 0.041 µM; in the assay on SN12C renal, less than 0.01 µM; in the assay on A549 NSCLC, less than 0.01 µM; with COLO 205 colon it was less than 0.0332 µM. The GI50 in the assay on UACC-62 melanoma was less than 0.01 µM; in the assay with SK-OV-3 ovarian it was less than 0.01 µM; in the assay on MDA-MB-435, 0.0142 µM; with SNB-19 CNS, less than 0.01 µM. In addition, the TGI was 1.08 µM in the assay with NCI-H226 lung; 3.65 µM with OVCAR-5 ovarian; more than 30.4 µM in the assay on CCRF-CEM leukemia; 0.294 µM in the assay on SN12C renal; 0.0593 µM with A549 NSCLC; 1.17 µM with COLO 205 colon. The TGI came to 0.0324 µM in the assay with UACC-62 melanoma, 0.0278 µM with SK-OV-3 ovarian, 0.162 µM in the assay on MDA-MB-435 and 1.45 µM in the assay on SNB-19 CNS.
Turning to `CC(C)OC(=O)Nc1c([N+](=O)[O-])cc(C(F)(F)F)cc1[N+](=O)[O-]`, the TGI in the assay on NCI-H226 lung, in the assay on OVCAR-5 ovarian, in the assay on CCRF-CEM leukemia, in the assay on SN12C renal, in the assay with A549 NSCLC and with COLO 205 colon was more than 100 µM each time. Further, the TGI in the assay on UACC-62 melanoma, with SK-OV-3 ovarian, in the assay with MDA-MB-435 and in the assay on SNB-19 CNS was more than 100 µM each time.
